According to patent US5340818A, “Methods and compositions for inhibiting tumor cell growth” (priority 1993, dated 1994):
Where “and” joins values, the source holds several entries; their conditions need not be identical. Equal values may be shown once. Read-outs that look alike come from different tables or passages of the source.

Experiments:
Assay type in all cases: cell-based, human
[1] = tested on: protein synthesis in HL-60 cells; test: Inhibition of [2,3,4,5-3H]L-Leu incorporation into protein of HL-60 cells; settings: for inhibition at 30 µg/mL: Homo sapiens; for % Inhibition of Precursor Incorporation, Protein: at 0.03 mg/mL
Procedure: (§1) For the precursor incorporation studies, each compound (in 0.3% dimethylsulfoxide) was preincubated with HL-60 cells (a human promyelocytic leukemic cell line) 2.2×10^6 /ml, for 15 min prior to the addition of the labeled precursor (obtained from ICN Radiochemicals, Irvine, Calif.) and then incubated for 30 min. The precursors used for incorporation into DNA, RNA and protein were [^3 H-methyl]dThd (1 μCi, 0.15 nmole/ml), [5-^3 H]Cyd (5 μCi, 0.23 nmol/ml), and [2,3,4,5-^3 H]L-Leu (0.5 μCi, 0.004 nmol/ml), respectively. Incorporation of radioactivity in the absence of a plant compound and in the presence of dimethylsulfoxide was used as a control. The control values for incorporation into DNA, RNA and protein were 8,500, 5,600 and 1,700 cpm/10^6 cells, respectively. The incubation conditions and the procedures for isolating DNA, RNA and protein fractions have been previously described (Chou, T. -C., et al., Cancer Res., 43:3074-3079 (1983)) .
(§2) HL-60 cells were incubated with [5-^3 H]Cyd or [2,3,4,5-^3 H]L-Leu in the presence and absence of alkaloids (0.03 mg/ml) in order to find the effects of the alkaloid on the incorporation of labeled precursors into RNA or protein. […] Over 90% of RNA and protein biosynthesis were inhibited by compounds 11, 16, 17, 22, 28, 29and 30 (Table 1). […] In most cases, the amount required to inhibit precursor incorporation into DNA was less than that to inhibit precursor incorporation into RNA or protein (i.e. DNA synthesis is inhibited most potently).

[2] = tested on: DNA synthesis in HL-60 cells; test: Inhibition of [3H-methyl]dThd incorporation into DNA of HL-60 cells; settings: for inhibition at 30 µg/mL: Homo sapiens, HL-60, at 0.03 mg/mL, read-out: % Inhibition of Precursor Incorporation, DNA; for inhibition of DNA synthesis, in words: HL-60, 0.03 mg/ml; for % Inhibition of Precursor Incorporation, DNA: at 0.03 mg/mL
Procedure: as §1, with “control.” for “control. The control values for incorporation into DNA, RNA and protein were 8,500, 5,600 and 1,700 cpm/10^6 cells, respectively. The incubation conditions and the procedures for isolating DNA, RNA and protein fractions have been previously described (Chou, T. -C., et al., Cancer Res., 43:3074-3079 (1983)) .”
Human promyelocytic cells (HL-60) were incubated with [^3 H-methyl]dTHDin the presence and absence of a plant alkaloid.

HL-60 cells = test: HL-60 cell growth inhibition, 72 h; settings: HL-60, 72 h; for IC50: read-out: Cell Growth Inhibition, IC50
Procedure: For growth inhibition studies, HL-60 cells (1.5×10^5 /ml) were grown in RPMI 1640 media (GIBCO, Grand Island, N.Y.) at 37° C. in humidified 5% CO2 for 72 h. Viable cells were determined using trypan blue exclusion and counted in a hemocytometer. The fractional inhibition for each compound concentration (0.0025-0.05 mg/ml in 0.1% dimethylsulfoxide) was analyzed with the median-effect plot using a computer program (Chou, T. -C and P. Talalay, Adv. Enzyme Regul., 22:27-55 (1984); Chou, J. and T. -C. thou, Dose-Effect analysis with microcomputers: Quantitation of ED50, LD50, synergism, antagonism, low-dose risk, receptor ligand binding and enzyme kinetics. A computer software disk for Apple II series or IBM-PC and manual. Elsevier Science Publishers, Elsevier-BioSoft, Cambridge, United Kingdom (1986)). The median-effect concentration (IC50) was determined automatically for three to five dose-effect levels. Cell growth in the absence of plant compound and in the presence of dimethylsulfoxide was used as a control. Dimethylsulfoxide alone inhibited cell growth 3.9%±1.5% during the 72 h incubation period. Those data with negative values represent activations.

[3] = tested on: RNA synthesis in HL-60 cells; test: Inhibition of [5-3H]Cyd incorporation into RNA of HL-60 cells; settings: for inhibition at 30 µg/mL: Homo sapiens, HL-60, 0.5 h
Procedure: as §1, §2

[4] = HL-60, at 0.03 mg/mL, read-out: % Inhibition of Precursor Incorporation, Protein
[5] = at 0.03 mg/mL, read-out: % Inhibition of Precursor Incorporation, RNA
[6] = HL-60, read-out: % Inhibition of Precursor Incorporation, Protein, at 0.03 mg/mL
[7] = read-out: % Inhibition of Precursor Incorporation, RNA, at 0.03 mg/mL

Compound | inhibition at 30 µg/mL [1, 4] [%] | inhibition at 30 µg/mL [2] [%] | cell growth inhibition, in words (HL-60 cells) | IC50 (HL-60 cells; Homo sapiens) | inhibition at 30 µg/mL [3, 5] [%] | inhibition of DNA synthesis, in words [2] | % Inhibition of Precursor Incorporation, Protein [1] [%] | % Inhibition of Precursor Incorporation, DNA [2] [%] | Cell Growth Inhibition, IC50 (HL-60 cells) [µg/mL] | IC50 (HL-60 cells) [µM] | % Inhibition of Precursor Incorporation, RNA ([3]; at 0.03 mg/mL) [%] | inhibition at 30 µg/mL [1, 6] [%] | inhibition at 30 µg/mL [3, 7] [%]
COc1cc(O)c2c(=O)c3ccc(O)c(OC)c3n(C)c2c1CC=C(C)C [Compound 29, Grandisinine] | 94.6 | 98.5 | significant activity against leukemic cells in vitro | 6 µg/mL and 16.9 µM | 96.5 |  |  |  |  |  |  |  | 
COc1ccc2c(=O)c3c(O)cc(OC)c(CC=C(C)C)c3n(C)c2c1OC [Compound 30, Balyumine-B] | 87 | 86.9 |  | 1.7 µg/mL and 4.4 µM | 92.5 |  |  |  |  |  |  |  | 
CC1(C)C=Cc2c(cc(O)c3c(=O)c4ccccc4[nH]c23)O1 [Compound 32, des-N-methyl-nor-acronycine] | 85.9 | 69.2 | only showed moderate cell growth inhibitory activity | 9.1 µg/mL and 31 µM | 77.5 | did not show good activity |  |  |  |  |  |  | 
COc1cc2c(c3[nH]c4ccccc4c(=O)c13)C=CC(C)(C)O2 [Compound 33, des-N-methyl acronycine] | 86.4 | 93.8 | significantly active | 5.4 µg/mL and 17.6 µM | 67.3 | markedly increased |  |  |  |  |  |  | 
Cn1c2ccccc2c(=O)c2c(O)cc3c(c21)C=CC(C)(C)O3 [Compound 35, Noracronycine] | 4.7 | 25.5 | only showed moderate cell growth inhibitory activity | > 40 µg/mL and > 130 µM | 94 |  |  |  |  |  |  |  | 
Cn1c2c(O)cccc2c(=O)c2c(O)cc3c(c21)CCC(C)(C)O3 [Compound 38, 1,2-Dihydro-11-hydroxy-nor acronycine] | 92.2 | 98.8 | only half as potent as their parent compounds | 5.5 µg/mL and 16.9 µM | 76.6 | same potency as their parent compounds |  |  |  |  |  |  | 
COc1cccc2c(=O)c3c(O)cc4c(c3n(C)c12)C=CC(C)(C)O4 [Compound 39, 11-methoxy-noracronycine] |  |  |  |  |  |  | 36.2 | 98.9 | 5.8 | 17.2 | 39.9 |  | 
CC(C)=CCc1c2c(c3[nH]c4c(O)cccc4c(=O)c3c1O)C=CC(C)(C)O2 [Compound 40, Atalaphyllinine] |  | 98.8 | comparable activity | 1.2 µg/mL and 3.2 µM |  | greater activity |  |  |  |  |  | 41.8 | 24.4
CC(C)=CCc1c2c(c3c(c1O)c(=O)c1ccccc1n3C)C=CC(C)(C)O2 [Compound 41, N-Methylseverifoline] | 13.2 | 21.3 | only showed moderate cell growth inhibitory activity | > 40 µg/mL and > 107 µM | -17.9 | no effect on the inhibitory activity |  |  |  |  |  |  | 
COc1c(O)ccc2c(=O)c3c(O)cc4c(c3n(C)c12)C=CC(C)(C)O4 [Compound 42, Citracridone-I] | 90.5 | 98.5 |  | 2.9 µg/mL and 8.2 µM | 96.9 |  |  |  |  |  |  |  | 
COc1c(O)ccc2c(=O)c3c(O)cc4c(c3n(C)c12)CCC(C)(C)O4 [Compound 43, 1,2-dihydrocitracridone-I] | 81.9 | 94.9 | only half as potent as their parent compounds | 6.4 µg/mL and 18 µM | 68 | same potency as their parent compounds |  |  |  |  |  |  | 
COc1ccc2c(=O)c3c(O)cc4c(c3n(C)c2c1OC)C=CC(C)(C)O4 [Compound 44, Citracridone-II] | 62.7 | 77.6 |  | > 40 µg/mL and > 109 µM | 96.4 |  |  |  |  |  |  |  | 
COc1ccc2c(=O)c3c(OC)cc4c(c3n(C)c2c1OC)C=CC(C)(C)O4 [Compound 45, 6-O-Methylcitracridone-II] | 49.8 | 98.7 | significantly active | 5.9 µg/mL and 15.5 µM | 37.8 |  |  |  |  |  |  |  | 
CC(C)=CCc1c2c(c3c(c1O)c(=O)c1cccc(O)c1n3C)C=CC(C)(C)O2 [Compound 46, 11-Hydroxy-N-methyl severifoline] |  | 97.9 |  | 5.9 µg/mL and 15.1 µM |  | significant activity |  |  |  |  |  | 4.22 | 16.7
CC(=O)Oc1cccc2c(=O)c3c(O)c(CC=C(C)C)c4c(c3n(C)c12)C=CC(C)(C)O4 [Compound 47, 11-O-Acetyl-N-methyl severifoline] | 36.2 | 58.4 |  | 8.8 µg/mL and 20.3 µM | 16.2 |  |  |  |  |  |  |  | 
COc1c2c(c(O)c3c(=O)c4cccc(O)c4n(C)c13)C=CC(C)(C)O2 [Compound 48, Pyranofoline] | 96.4 | 98.8 | better activity than that of acronycine | 3.1 µg/mL and 8.8 µM | 97.2 | inhibited DNA synthesis significantly |  |  |  |  |  |  | 
CC(C)=CCc1c(O)c(C2CC(C)(C)Oc3cc(O)c4c(=O)c5ccccc5[nH]c4c32)c(O)c2c(=O)c3ccccc3n(C)c12 (centres unmarked) [Compound 52, Glycobismine-A] |  |  |  |  |  | not active | -13.2 | -27.8 | > 40 | > 66.4 | -57.4 |  | 
Furofoline-II [Compound 51] |  |  |  |  |  | not active | 19.5 | 13.1 | > 40 | > 124 | -46.3 |  | 
Methoxymethyl-pyranofoline [Compound 49] |  |  |  |  |  | inhibited DNA synthesis significantly | 87.3 | 85.3 | 18.7 | 47.1 | 70.1 |  | 
